Assay results: PubChem BioAssay AID1963982 (Molecular Pharmacology Branch, DTP, NCI, 2024)

Test system: 313798-341-R-J2-PDC spheroids, viability
Assay: Anticancer human tumor 313798-341-R-J2-PDC patient-derived cervical squamous cell carcinoma cell line growth inhibition [PI3K]
Settings: spheroids with HUVEC and MSC; for IC50: curve of first compound; for viability, T/C: stronger effect = lower value
Outline: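 Three cell types, namely tumor cells, endothelial cells and mesenchymal stem cells, formed each spheroid. Combinations with four PI3K inhibitors were screened at clinically achievable concentrations decreasing by half-log, and spheroid viability was recorded.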

[1] = second compound 0.00316 µM, first compound 0.0316 µM
[2] = second compound 0.00316 µM, first compound 0.1 µM
[3] = second compound 0.00316 µM, first compound 0.316 µM
[4] = second compound 0.00316 µM, first compound 1 µM
[5] = second compound 0.00316 µM, first compound 3.16 µM
[6] = second compound 0.00316 µM, first compound 10 µM
[7] = second compound 0.01 µM, first compound 0.0316 µM
[8] = second compound 0.01 µM, first compound 0.1 µM
[9] = second compound 0.01 µM, first compound 0.316 µM
[10] = second compound 0.01 µM, first compound 1 µM
[11] = second compound 0.01 µM, first compound 3.16 µM
[12] = second compound 0.01 µM, first compound 10 µM
[13] = second compound 0.0316 µM, first compound 0.0316 µM
[14] = second compound 0.0316 µM, first compound 0.1 µM
[15] = second compound 0.0316 µM, first compound 0.316 µM
[16] = second compound 0.0316 µM, first compound 1 µM
[17] = second compound 0.0316 µM, first compound 3.16 µM
[18] = second compound 0.0316 µM, first compound 10 µM
[19] = second compound 0.1 µM, first compound 0.0316 µM
[20] = second compound 0.1 µM, first compound 0.1 µM
[21] = second compound 0.1 µM, first compound 0.316 µM
[22] = second compound 0.1 µM, first compound 1 µM
[23] = second compound 0.1 µM, first compound 3.16 µM
[24] = second compound 0.1 µM, first compound 10 µM
[25] = second compound 0.316 µM, first compound 0.0316 µM
[26] = second compound 0.316 µM, first compound 0.1 µM
[27] = second compound 0.316 µM, first compound 0.316 µM
[28] = second compound 0.316 µM, first compound 1 µM
[29] = second compound 0.316 µM, first compound 3.16 µM
[30] = second compound 0.316 µM, first compound 10 µM
[31] = second compound 1 µM, first compound 0.0316 µM
[32] = second compound 1 µM, first compound 0.1 µM
[33] = second compound 1 µM, first compound 0.316 µM
[34] = second compound 1 µM, first compound 1 µM
[35] = second compound 1 µM, first compound 3.16 µM
[36] = second compound 1 µM, first compound 10 µM
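Note: spheroids exposed to compounds for seven days.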
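Throughout, for viability, T/C: 100% = DMSO vehicle control viability.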

## C#Cc1c(F)ccc2cc(O)cc(-c3ncc4c(N5CC6CCC(C5)N6)nc(OCC56CCCN5CC(F)C6)nc4c3F)c12 (stereo unspecified) + COc1c(OCCCN2CCOCC2)ccc2c3n(c(=NC(=O)c4cnc(N)nc4)nc12)CCN3
Second compound 0.00316 µM
  IC50: > 10000 nM
Second compound 0.01 µM
  IC50: > 10000 nM
Second compound 0.0316 µM
  IC50: > 10000 nM
Second compound 0.1 µM
  IC50: < 31.6 nM
Second compound 0.316 µM
  IC50: < 31.6 nM
Second compound 1 µM
  IC50: < 31.6 nM
[1]
  viability, T/C: 107%
[2]
  viability, T/C: 103%
[3]
  viability, T/C: 107%
[4]
  viability, T/C: 110%
[5]
  viability, T/C: 108%
[6]
  viability, T/C: 100%
[7]
  viability, T/C: 93.6%
[8]
  viability, T/C: 106%
[9]
  viability, T/C: 105%
[10]
  viability, T/C: 108%
[11]
  viability, T/C: 98.7%
[12]
  viability, T/C: 102%
[13]
  viability, T/C: 70.2%
[14]
  viability, T/C: 83.3%
[15]
  viability, T/C: 96.8%
[16]
  viability, T/C: 78.7%
[17]
  viability, T/C: 72.7%
[18]
  viability, T/C: 77.2%
[19]
  viability, T/C: 40.1%
[20]
  viability, T/C: 47.7%
[21]
  viability, T/C: 45.1%
[22]
  viability, T/C: 42.1%
[23]
  viability, T/C: 39.5%
[24]
  viability, T/C: 32.6%
[25]
  viability, T/C: 17.8%
[26]
  viability, T/C: 18.2%
[27]
  viability, T/C: 16.7%
[28]
  viability, T/C: 13.4%
[29]
  viability, T/C: 15.3%
[30]
  viability, T/C: 6.87%
[31]
  viability, T/C: 9.9%
[32]
  viability, T/C: 13.1%
[33]
  viability, T/C: 12.1%
[34]
  viability, T/C: 11.2%
[35]
  viability, T/C: 8.79%
[36]
  viability, T/C: 4.83%

## C=CC(=O)N1CCN(c2nc(=O)n(-c3c(C)ccnc3C(C)C)c3nc(-c4c(O)cccc4F)c(F)cc23)C(C)C1 (stereo unspecified) + COc1c(OCCCN2CCOCC2)ccc2c3n(c(=NC(=O)c4cnc(N)nc4)nc12)CCN3
Second compound 0.00316 µM
  IC50: > 10000 nM
Second compound 0.01 µM
  IC50: > 10000 nM
Second compound 0.0316 µM
  IC50: > 10000 nM
Second compound 0.1 µM
  IC50: < 31.6 nM
Second compound 0.316 µM
  IC50: < 31.6 nM
Second compound 1 µM
  IC50: < 31.6 nM
[1]
  viability, T/C: 98.3%
[2]
  viability, T/C: 103%
[3]
  viability, T/C: 106%
[4]
  viability, T/C: 96.1%
[5]
  viability, T/C: 101%
[6]
  viability, T/C: 106%
[7]
  viability, T/C: 92%
[8]
  viability, T/C: 99.4%
[9]
  viability, T/C: 106%
[10]
  viability, T/C: 112%
[11]
  viability, T/C: 112%
[12]
  viability, T/C: 96.5%
[13]
  viability, T/C: 70.6%
[14]
  viability, T/C: 80.3%
[15]
  viability, T/C: 91.4%
[16]
  viability, T/C: 90.4%
[17]
  viability, T/C: 83.6%
[18]
  viability, T/C: 82.9%
[19]
  viability, T/C: 44.8%
[20]
  viability, T/C: 48.9%
[21]
  viability, T/C: 52.1%
[22]
  viability, T/C: 48.7%
[23]
  viability, T/C: 50.1%
[24]
  viability, T/C: 42.9%
[25]
  viability, T/C: 16.8%
[26]
  viability, T/C: 17.9%
[27]
  viability, T/C: 15.4%
[28]
  viability, T/C: 18.2%
[29]
  viability, T/C: 19.1%
[30]
  viability, T/C: 13.5%
[31]
  viability, T/C: 12%
[32]
  viability, T/C: 12.6%
[33]
  viability, T/C: 12.8%
[34]
  viability, T/C: 13.7%
[35]
  viability, T/C: 14.6%
[36]
  viability, T/C: 10.2%

## CC1(C)CCC(Nc2ncc(C(F)(F)F)c(-c3c[nH]c4c(P(C)(C)=O)c(C#N)ccc34)n2)CN1 (stereo unspecified) + COc1c(OCCCN2CCOCC2)ccc2c3n(c(=NC(=O)c4cnc(N)nc4)nc12)CCN3
Second compound 0.00316 µM
  IC50: < 31.6 nM
Second compound 0.01 µM
  IC50: < 31.6 nM
Second compound 0.0316 µM
  IC50: < 31.6 nM
Second compound 0.1 µM
  IC50: < 31.6 nM
Second compound 0.316 µM
  IC50: < 31.6 nM
Second compound 1 µM
  IC50: < 31.6 nM
[1]
  viability, T/C: 44.6%
[2]
  viability, T/C: 42.3%
[3]
  viability, T/C: 39.7%
[4]
  viability, T/C: 43.9%
[5]
  viability, T/C: 45.4%
[6]
  viability, T/C: 33.7%
[7]
  viability, T/C: 39.6%
[8]
  viability, T/C: 34.7%
[9]
  viability, T/C: 36.8%
[10]
  viability, T/C: 38.1%
[11]
  viability, T/C: 43.1%
[12]
  viability, T/C: 29.1%
[13]
  viability, T/C: 27.4%
[14]
  viability, T/C: 27.9%
[15]
  viability, T/C: 27.4%
[16]
  viability, T/C: 27.9%
[17]
  viability, T/C: 26.5%
[18]
  viability, T/C: 16.5%
[19]
  viability, T/C: 18.9%
[20]
  viability, T/C: 21.1%
[21]
  viability, T/C: 20%
[22]
  viability, T/C: 20.2%
[23]
  viability, T/C: 21.5%
[24]
  viability, T/C: 3.93%
[25]
  viability, T/C: 12.2%
[26]
  viability, T/C: 11.7%
[27]
  viability, T/C: 12.2%
[28]
  viability, T/C: 12%
[29]
  viability, T/C: 8.87%
[30]
  viability, T/C: 1.12%
[31]
  viability, T/C: 9.94%
[32]
  viability, T/C: 9.34%
[33]
  viability, T/C: 7.8%
[34]
  viability, T/C: 7.89%
[35]
  viability, T/C: 5.87%
[36]
  viability, T/C: 1.15%
